Results on three molecules are retold here after patent publication US20090186814A1, “Methods and Compositions for Reducing Ischemia-Derived Microvascular Damage” (priority 2005, published 2009).

Like-named read-outs stand apart in the source and are kept apart here. Ends that are not written are not given here. Peptide text beside a SMILES is read from it. * marks the point of attachment. Cbz = O=C(OCc1ccccc1)*; CH2F = FC*

The subject of one data set is rat myocardium. Conditions: in vivo rat myocardium; cited from earlier work.
Another data set concerns rabbit femoral arteries. Conditions: in vivo rabbit femoral arteries; cited from earlier work.
A further data set deals with mouse hearts. As to the kind of experiment: Ex vivo model of global ischemia and reperfusion injury, Langendorff-perfused mouse hearts (WT and δV1-1 transgenic). On the procedure:
Transgenic mice (TG) that selectively express δV1-1 in myocytes were created using α- myosin heavy chain promoter. Hah, H. S., et al., Circ. Res. 91:741-748 (2002). Hemodynamic and morphometric parameters in these transgenic mice, as measured by echocardiographic measurements in vivo, were not different from those measured in wild type mice (WT). Inagaki, K., et al., Circulation 108:869-875 (2003). Mice were heparinized (4000U/kg IP) and anesthetized with sodium pentobarbital (200mg/kg IP). Hearts were perfused with an oxygenated Krebs-Henseleit buffer at 37° C. in a Langendorff system as previously described in Inagaki, K., et al., Circulation 108:869-875 (2003). Hearts were subjected to a 30-minute global ischemia and a 120-minute full reperfusion. The coronary flow rate was kept constant at 3 mL/minute (0.04L/min/g; initial coronary perfusion pressure: WT 67.4±5.1, WT+δV1-1 61.0±4.6, TG 62.6±3.9, TG+δV1-1 64.6±5.4 mmHg; PENS, n=5 for each group; FIG. 1) using an adjustable-speed rotary pump during the experiment to provide 60-80 mmHg of initial coronary perfusion pressure (CPP) as previously reported in Webster, K. A., et al., J. Clin. Invest. 104:239-252 (1999). CPP was measured through a sidearm in the Langendorff system. Coronary vascular resistance (CVR) was defined as CPP divided by coronary flow rate. Hearts were perfused with Tat-conjugated δV1-1 [50 nmol/L; Tat-conjugated δV1-1 described in Chen, L. et al., Proc. Natl. Acad. Sci. U.S.A. 98:11114-11119 (2001)] or vehicle (control) during the first 20 minutes of reperfusion (n=5 for each group). Coronary perfusion effluent was collected to determine creatine phosphokinase (CPK) release.
(§1) At the end of the reperfusion, 1 -mm-thick transverse sections of mouse hearts were incubated in triphenyltetrazolium chloride solution (TTC) (1% in phosphate buffer, pH 7.4) at 37° C. for 15 minutes as described in Inagaki, K. et al., Circulation 108:869-875 (2003) to determine the viable myocardium. One cm-thick transverse segments of the hearts were stained with TTC. Infarct size was expressed as a percentage of the total area at risk. Immunohistochemistry was performed on cardiac tissue two hours after reperfusion in murine hearts (n=5 for each group) as described in Vakeva, A. P., et al., Circulation 97:2259-2267 (1998). Hearts were immediately frozen in Optimal Cutting Temperature (OCT) Compound, and 5-μm-thick cryosections were obtained. Sections were fixed with 4% formaldehyde, blocked with 1 % normal donkey serum and incubated with mouse monoclonal anti-(x-actinin antibody (Sigma-Aldrich) or goat anti-PECAM-1 antibody (Santa Cruz Biochemicals) to distinguish between endothelial cells and myocytes. Secondary antibody treatments were carried out using goat anti-mouse IgG antibody conjugated with FITC or donkey anti-goat lgG antibody conjugated with FITC (Molecular Probe). Terminal deoxynucleotidyl transferase-mediated dUTP nick-end labeling (TUNEL) staining was performed for detection of apoptotic cells (Roche) and nuclei were counterstained with 4, 6-diamidino-2-phenylindole (DAPI; Sigma-Aldrich). Tissue samples from the non-ischemic area were used as negative control. TUNEL-positive nuclei were counted in a total of 1,500 myocytes and 500 of endothelial cells over several random fields.
Data are expressed as mean±SEM. Two-way ANOVA for repeated measures was used for time-course of cardiac function and vascular function, 1-way factorial ANOVA with Fisher's test for multiple comparisons, and unpaired or paired student's t-test for difference between 2 groups. P<0.05 was considered statistically significant.

For another data set, the system named is Yorkshire swine. Type of data set: in vivo, pig. Further details: key to CFR(Cx) / CFR(LAD): hyperemic average peak velocity ÷ baseline average peak velocity. Conditions: for CFR(LAD): adenosine hyperemia; for CFR(Cx): unaffected left circumflex artery. The method, then:
Yorkshire swine (30-45kg) were maintained during the every procedure under anesthesia by inhaled isoflurane (1-2%). A bolus of 300 IU/kg heparin was administered intravenously through the sheath (6 French) placed in the carotid artery. A 10 mm, over-the-wire angioplasty balloon was placed in the left anterior descending artery (LAD) proximal to the first diagonal branch. The balloon was inflated to occlude the LAD for 30 minutes. At the last 1 minute of a 30-minute ischemia, Tat-conjugated δV1-1 (250 ng/kg) or saline was infused at 1 mL/minute for 1 minute through the guide-wire lumen of the balloon catheter (n=9 for each group). Left ventriculogram (LVG) was obtained (40° left anterior oblique projection, 30 frames/sec) to measure cardiac function at 5 time points; before ischemia (baseline), 30 minutes, 24 hours, 5 days, and 10 days after ischemia (n=9 for each group). Ejection fraction (EF) and hypokinetic area were calculated using the software (Plus Plus, Sanders Data System, Calif.) with elimination of frames after premature ventricular contraction beats. Blood pressure and heart rate were measured just before LVG measurements at each time point through the water-filled catheter (Table 1). Coronary flow was measured by a 0.014″ Doppler-tipped guide wire (Flowire, JOMED Inc.) in the LAD, and the unaffected, left circumflex artery (LCx). The wire tip was placed 2 cm distal from the balloon-occluded site in the LAD. After stable baseline flow velocity was recorded, adenosine [endothelium-independent vasodilator; 48 μg; Suryapranata, H., et al., Circulation 89:1109-1117 (1994)] was infused intracoronarily to induce hyperemia (a transient increase in coronary blood flow through microvascular vasodilation) at 5 time points: before ischemia (baseline), 30 minutes, 24 hours, 5 days, and 10 days after ischemia (n=9 for each group). Bradykinin [endothelium-dependent vaodilator, 0.2ml of a 3×10^−6M in saline; Rodriguez-Sinovas, A., et al., J. Appl. Physiol. 95:81-88 (2003)] was also infused intracoronary before ischemia and 24 hours after reperfusion (n=6 for each group). Coronary flow reserve was calculated by dividing the average peak velocity (APV) at hyperemic phase by the baseline APV as described in Suryapranata, H., et al., Circulation 89:1109-1117 (1994). After reperfusion, to determine the area at risk in porcine hearts, LAD ligation was performed at the balloon-occluded site and Evan's Blue (0.0025%) was perfused as previously described in Inagaki, K., et al., Circulation 2304-2307 (2003). All other methods were performed as described in Example 1.

The test system of data set [1] is endothelial cells and myocytes of porcine hearts. As to the kind of experiment: TUNEL staining and electron microscopy of porcine cardiac tissue 4 hours after reperfusion. Type of data set: in vivo, pig. The method, then:
as §1
Immunohistochemistry was performed on cardiac tissue as described in Example 1 with the exception that immunohisotchemistry was performed 4 hours after reperfusion in porcine hearts (n=3 for each group).
Electron microscopy study was performed on porcine cardiac tissue 4 hours after reperfusion (n=3 for each group). Samples taken from the mid-myocardium were fixed (FIG. 3A) and prepared as previously reported in Gottlieb, R. A., et al., J. Clin Invest. 94:1621-1628 (1994). Ultra-thin sections were stained with uranyl acetate lead citrate and examined with the H300 (Hitachi) electron microscopy. All other methods were as previously described in Examples 1 and 2.

Another data set concerns adult rat cardiomyocytes. To be noted: cited from earlier work.
For data set [2], the system named is caspase-3. To be noted: myocardium; cited from earlier work.
Data set [3] deals with caspase-3. Conditions: cited from earlier work.
The mark [4] stands for this setting: further δV1-1 infusion to the transgenic hearts.
Where [5] appears, read: transgenic mouse hearts, exogenous δV1-1.
Setting [6] is: wild type hearts, exogenous δV1-1.
Where [7] appears, read: wild type hearts, δV1-1 delivered through coronary arteries, 50 nmol/L, first 20 minutes of reperfusion.
[8] abbreviates: LAD, Baseline (before ischemia).
The mark [9] stands for this setting: electron microscopy, 4 hours after reperfusion.
Setting [10] is: electron microscopy, 4 hours after reperfusion, listed as δV1-.
Setting [11] is: four hours after reperfusion, TUNEL, n=3.

As to `COC(=O)C[C@H](NC(=O)[C@H](C)NC(=O)[C@@H](NC(=O)OCc1ccccc1)C(C)C)C(=O)CF` [ZVADfmk] (Cbz-Val-Ala-Asp(OMe)-CH2F), the reperfusion injury entry with rat myocardium is “reduces reperfusion injury”. Moreover, the staurosporin-induced endothelial apoptosis result in the data set with rabbit femoral arteries is reported as “reduces”.
As to “δV1-1: δPKC inhibitor peptide, SEQ ID NO:1 (SFNSYELGSL), amino acids 8-17 of rat δPKC; used Tat-conjugated in the examples (also: Tat conjugate in examples; listed as Rattus norvegicus)”, the “coronary vascular resistance (CVR) during reperfusion” value in the data set with mouse hearts (further treatment of transgenic mouse hearts) was “significantly minimized the rise of CVR”. Also, the CPK release entry in the data set with mouse hearts (setting [4]) was “unaffected”. Further, the infarct size result with mouse hearts (setting [4]) was “unaffected”; in the data set with Yorkshire swine (intracoronary treatment at the time of reperfusion, 10 days after ischemia, n=9), 4.4±1.1%. The TUNEL-positive myocytes entry with mouse hearts (setting [5]) is reported as “without any further effect”. The “decrease of TUNEL-positive endothelial cells” value with mouse hearts (setting [5]) stood at 80%. For the same molecule, the “reduction of number of TUNEL positive endothelial cells” value in the data set on mouse hearts (setting [6]) turned out to be 80%. Besides, the “reduction of number of TUNEL positive myocytes” value with mouse hearts (setting [6]) worked out at 80%. Further, the “decrease in CPK release” value with mouse hearts (setting [7]) is “about 70%”. For the same molecule, the “decrease in infarct size” value in the data set with mouse hearts (setting [7]) is reported as “about 70%”. The “CFR(LAD)” value came to 2.00 ± 0.20 with Yorkshire swine (30 min R); 2.50 ± 0.24 in the data set on Yorkshire swine (24 hr R); 2.68 ± 0.21 with Yorkshire swine (5 days R); 2.67 ± 0.27 with Yorkshire swine (10 days R); 2.52 ± 0.16 with Yorkshire swine (Baseline (before ischemia)). Further, the “coronary flow reserve in LAD following bradykinin infusion” value with Yorkshire swine (24 hours after reperfusion, n=6) is “did not decrease”. The molecule further showed an ejection fraction in the data set on Yorkshire swine (10 days after ischemia, n=9) of 69.9±1.6%. Also, in the data set with Yorkshire swine (10 days after ischemia, n=9), the hypokinetic area stood at 4.7±2.0%. The “b-APV (baseline average peak flow velocity)” value amounted to 20.3 ± 3 cm/s in the data set with Yorkshire swine (Cx, 30 min R); 15 ± 2 cm/s with Yorkshire swine (Cx, 24 hr R); 25 ± 5 cm/s in the data set on Yorkshire swine (Cx, 5 days R); 25 ± 3 cm/s in the data set with Yorkshire swine (Cx, 10 days R); 24 ± 2 cm/s in the data set on Yorkshire swine (Cx, Baseline (before ischemia)); 27 ± 4 cm/s in the data set on Yorkshire swine (LAD, 30 min R). Moreover, the “b-APV (baseline average peak flow velocity)” value with Yorkshire swine (LAD, 24 hr R) is 18 ± 1 cm/s; with Yorkshire swine (LAD, 5 days R), 24 ± 3 cm/s; in the data set with Yorkshire swine (LAD, 10 days R) it was 25 ± 4 cm/s; in the data set on Yorkshire swine (setting [8]), 24 ± 3 cm/s. In addition, the “h-APV (hyperemia average peak flow velocity)” value was 37 ± 3 cm/s in the data set on Yorkshire swine (Cx, 30 min R); 30 ± 4 cm/s with Yorkshire swine (Cx, 24 hr R); 55 ± 10 cm/s in the data set with Yorkshire swine (Cx, 5 days R); 55 ± 5 cm/s in the data set on Yorkshire swine (Cx, 10 days R); 61 ± 3 cm/s with Yorkshire swine (Cx, Baseline (before ischemia)); 49 ± 4 cm/s in the data set with Yorkshire swine (LAD, 30 min R). The “h-APV (hyperemia average peak flow velocity)” value in the data set with Yorkshire swine (LAD, 24 hr R) came out at 46 ± 6 cm/s; with Yorkshire swine (LAD, 5 days R) it was 67 ± 9 cm/s; in the data set with Yorkshire swine (LAD, 10 days R) it was 57 ± 6 cm/s; with Yorkshire swine (setting [8]) it was 58 ± 7 cm/s. Also, the “resting APV and coronary flow reserve in left circumflex artery (LCx, control artery)” value in the data set on Yorkshire swine (all time points) is listed as “remained normal”. Also, the “blood pressure, heart rate or vessel diameter vs. control group” value in the data set on Yorkshire swine (pig, in vivo) is given as “no significant differences”. For the same molecule, the “CFR(Cx)” value turned out to be 1.73 ± 0.21 with Yorkshire swine (30 min R); 1.96 ± 0.04 in the data set on Yorkshire swine (24 hr R); 2.01 ± 0.14 in the data set on Yorkshire swine (5 days R); 2.46 ± 0.20 with Yorkshire swine (10 days R); 2.44 ± 0.10 in the data set with Yorkshire swine (Baseline (before ischemia)). Further, the “time until coronary flow reserve (adenosine, LAD) was normalized” value in the data set with Yorkshire swine (δV1-1-treated pigs) is no more than 24 h. Besides, the “coronary flow reserve following adenosine infusion in LAD after reperfusion” value with Yorkshire swine (δV1-1-treated pigs, 250 ng/kg intracoronary at last 1 minute of ischemia) was “minor decrease”. Further, the endothelial cell swelling entry in data set [1] (setting [9]) is “minimal swelling”; in data set [1] (setting [10]), “slight endothelial swelling”. Further, in data set [1] (setting [9]), the microvasculature lumen result was “patent”. The “myocyte damage (contraction bands, swollen mitochondria)” value in data set [1] (setting [9]) is given as “no such pathological changes were observed”; in data set [1] (setting [10]), “neither contraction bands nor swollen mitochondria”. Besides, the “obstruction of capillaries by red and white blood cells” value in data set [1] (setting [9]) is “rarely seen”. In data set [1] (setting [11]), the “decrease of apoptosis in endothelial cells” value is given as “about 70%”. Moreover, the “decrease of apoptosis in myocytes” value in data set [1] (setting [11]) is on record as “about 70%”. For the same molecule, the hyperglycemia-induced apoptosis result with adult rat cardiomyocytes was “inhibits”. Besides, the free radical formation entry in the data set with adult rat cardiomyocytes (hyperglycemia) is recorded as “inhibits”. For the same molecule, the “reperfusion-induced caspase-3 activity” value in the data set on caspase-3 [2] is given as “reduced”.
As to `CC(=O)c1c(O)c(C)c(O)c(Cc2c(O)c3c(c(C(=O)/C=C/c4ccccc4)c2O)OC(C)(C)C=C3)c1O` [rottlerin], the caspase-3 activity result with caspase-3 [3] is recorded as “attenuated”.
